Target: intracellular domain of the DDR1 protein (Homo sapiens (Human), UniProt Q08345)
Assay: In vitro binding competition assay for DDR1 (Eu-labeled anti-GST antibody / tracer FRET)
Settings: recombinant GST-tagged protein, one hour incubation at room temperature
Excerpt: This assay is based on the intracellular domain of the DDR1 protein which contains the kinase active site. The recombinant protein additionally carries a GST-tag that can be recognized by an Eu-labeled anti-GST antibody. […] Excitation energy absorbed by the Europium complex (350 nm flash light or pulsed laser) is transferred to a suitable fluorescent dye, if it is in close proximity. Compounds binding competitively with the tracer molecule will displace the bound tracer molecules and reduce the FRET signal in a dose dependent manner. Due to the long lifetime of the Eu excited state, the emission of the donor and the acceptor can be measured in time-gated mode such that most of the intrinsic fluorescence contributions have already decayed. […] This sensitive detection method enables protein concentrations below 20 nM.
Protein, tracer and labeled antibody were obtained from commercial sources. […] Dose response curves were generated from 16 compound dilutions in DMSO as solvent compound dilutions, a solution containing protein and labeled antibody, and a solution containing the tracer which is added in the last step. The fluorescence of donor and acceptor were then measured after one hour incubation at room temperature. Every assay run was quality-controlled with dose response curves for two reference compounds.

Sequence of intracellular domain of the DDR1 protein (Q08345 439-913): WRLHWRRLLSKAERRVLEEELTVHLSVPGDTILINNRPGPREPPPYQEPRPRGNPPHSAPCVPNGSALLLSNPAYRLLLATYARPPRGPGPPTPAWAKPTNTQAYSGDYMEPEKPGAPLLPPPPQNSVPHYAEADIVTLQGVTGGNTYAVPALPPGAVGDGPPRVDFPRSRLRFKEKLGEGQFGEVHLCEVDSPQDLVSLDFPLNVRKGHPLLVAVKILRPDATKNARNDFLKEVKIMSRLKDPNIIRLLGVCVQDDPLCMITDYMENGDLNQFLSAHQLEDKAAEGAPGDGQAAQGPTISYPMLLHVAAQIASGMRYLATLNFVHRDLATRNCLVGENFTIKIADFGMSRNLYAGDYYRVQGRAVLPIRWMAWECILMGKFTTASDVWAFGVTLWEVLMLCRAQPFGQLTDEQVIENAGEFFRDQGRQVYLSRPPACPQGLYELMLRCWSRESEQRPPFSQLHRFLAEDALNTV

## O=C(CN1CN(c2ccccc2)C2(CCN(C(=O)c3ccc4[nH]ncc4c3)CC2)C1=O)NCC(F)(F)F [Example 7, 2-(8-(1H-Indazole-5-carbonyl)-4-oxo-1-phenyl-1,3,8-triazaspiro[4.5]decan-3-yl)-N-(2,2,2-trifluoroethyl)acetamide]
  IC50: 15.5 nM

## O=C(CN1CN(c2ccccc2)C2(CCN(C(=O)c3ccc4[nH]ncc4n3)CC2)C1=O)NCC(F)(F)F [Example 91, 2-(4-Oxo-1-phenyl-8-(1H-pyrazolo[4,3-b]pyridine-5-carbonyl)-1,3,8-triazaspiro[4.5]decan-3-yl)-N-(2,2,2-trifluoroethyl)acetamide]
  IC50: 19.4 nM
